What was measured:
[1] = tested on: Orchid thrips (Dichromothrips corbetti); experiment: CE.1 Orchid thrips floral-immersion test, comparison with comparative compounds; assay type: in vivo; settings: for % activity (mortality of Orchid thrips in %, vs. untreated control): floral immersion, 72 hours after treatment
Method: (§1) The activity summarized in the tables hereinbelow are given as percentage of mortality in comparison with untreated control
Dichromothrips corbetti adults used for bioassay were obtained from a colony maintained continuously under laboratory conditions. For testing purposes, the test compound is diluted in a 1:1 mixture of acetone:water (vol:vol), plus 0.01% vol/vol Alkamuls® EL 620 surfactant.
Thrips potency of each compound was evaluated by using a floral-immersion technique. Plastic petri dishes were used as test arenas. All petals of individual, intact orchid flowers were dipped into treatment solution and allowed to dry. Treated flowers were placed into individual petri dishes along with about 20 adult thrips. The petri dishes were then covered with lids. All test arenas were held under continuous light and a temperature of about 28° C. for duration of the assay. After 3 days, the numbers of live thrips were counted on each flower, and along inner walls of each petri dish. The percent mortality was recorded 72 hours after treatment.

[2] = tested on: Rice green leafhopper (Nephotettix virescens); experiment: CE.2 Rice green leafhopper spray test on rice seedlings, comparison with comparative compound; assay type: in vivo; settings: for % activity (mortality of Rice green leafhopper in %, vs. untreated control): sprayed rice seedlings, after 72 hours
Method: as §1
Rice seedlings were cleaned and washed 24 hours before spraying. The active compounds were formulated in 50:50 acetone:water (vol:vol), and 0.1% vol/vol surfactant (EL 620) was added. Potted rice seedlings were sprayed with 5 ml test solution, air dried, placed in cages and inoculated with 10 adults. Treated rice plants were kept at about 28-29° C. and relative humidity of about 50-60%. Percent mortality was recorded after 72 hours.

[3] = percent mortality 72 hours after treatment

## Cc1cc(Cl)cc(C(=O)N=S(C)C)c1NC(=O)c1cc(C(F)F)nn1-c1ncccc1Cl [Compound 4]
[1]; 10 ppm active ingredient
  % activity (mortality of Orchid thrips in %, vs. untreated control): 95%
[1]; 100 ppm active ingredient
  % activity (mortality of Orchid thrips in %, vs. untreated control): 100%
[1]; 300 ppm active ingredient
  % activity (mortality of Orchid thrips in %, vs. untreated control): 100%
[1]; [3]
  activity against Orchid thrips in comparison with comparative compound CC-1: superior activity

## Cc1cc(Cl)cc(C(=O)N=S(C(C)C)C(C)C)c1NC(=O)c1cc(C(F)F)nn1-c1ncccc1Cl [Compound 25]
[2]; 100 ppm active ingredient
  % activity (mortality of Rice green leafhopper in %, vs. untreated control): 50%
[2]; 300 ppm active ingredient
  % activity (mortality of Rice green leafhopper in %, vs. untreated control): 100%
[2]; 500 ppm active ingredient
  % activity (mortality of Rice green leafhopper in %, vs. untreated control): 100%
[2]; percent mortality after 72 hours
  activity against Rice green leafhopper in comparison with comparative compound CC-2: superior activity
[1]; 10 ppm active ingredient
  % activity (mortality of Orchid thrips in %, vs. untreated control): 95%
[1]; 100 ppm active ingredient
  % activity (mortality of Orchid thrips in %, vs. untreated control): 100%
[1]; 300 ppm active ingredient
  % activity (mortality of Orchid thrips in %, vs. untreated control): 100%
[1]; [3]
  activity against Orchid thrips in comparison with comparative compound CC-2: superior activity
